Reference: ChEMBL document CHEMBL1201862, “PubChem BioAssay data set” (2004)
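All cell lines were grown in 96-well plates and treated with compound for 48 hours. Abbreviation: GI50, concentration required for 50% inhibition of growth.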 The source made the active and inactive calls. Cut-off read from the data, not from the text of the source: active = GI50 up to about 1.1 µM and inactive = higher.

Tests used:
Assay in all cases: growth of human tumour cells (NCI), 48 h
[1] = tested on: A549
[2] = tested on: ACHN
[3] = tested on: CAKI-1
[4] = tested on: EKVX
[5] = tested on: HL-60
[6] = tested on: HOP-62
[7] = tested on: M14
[8] = tested on: NCI-H226
[9] = tested on: NCI-H460
[10] = tested on: RXF 393
[11] = tested on: SK-MEL-2
[12] = tested on: SK-OV-3
[13] = tested on: SR
[14] = tested on: TK-10
[15] = tested on: UACC-62
[16] = tested on: HOP-92

Structure (SMILES) | GI50 [1] | GI50 [2] | GI50 [3] | GI50 [4] | GI50 [5] | GI50 [6] | GI50 [7] | GI50 [8] | GI50 [9] | GI50 [10] | GI50 [11] | GI50 [12] | GI50 [13] | GI50 [14] | GI50 [15] | GI50 [16]
COc1cc2c(cc1OC)[C@@H](Nc1ccc(F)cc1)C1COC(=O)[C@@H]1C2c1cc(OC)c(O)c(OC)c1 (stereo partly specified) | 0.0484 µM (active) | 0.12 µM (active) | 0.384 µM (active) | > 38.2 µM (inactive) | 0.0982 µM (active) | 0.128 µM (active) | 1.24 µM (inactive) | 0.231 µM (active) | < 0.0204 µM (active) | 3.4 µM (inactive) | 5.42 µM (inactive) | 1.56 µM (inactive) | 0.0421 µM (active) | 7.18 µM (inactive) | 0.589 µM (active) | –
CC/C(CC(=O)CCC(=O)Nc1c(C)cccc1C)=N\NC(=O)NN | > 100 µM (inactive) | > 100 µM (inactive) | – | > 100 µM (inactive) | > 100 µM (inactive) | – | > 100 µM (inactive) | – | > 100 µM (inactive) | > 100 µM (inactive) | > 100 µM (inactive) | – | > 100 µM (inactive) | > 100 µM (inactive) | > 100 µM (inactive) | > 100 µM (inactive)
COc1cccc2nc3cc(C)c(C)cc3nc12 | > 100 µM (inactive) | > 100 µM (inactive) | > 100 µM (inactive) | > 100 µM (inactive) | > 100 µM (inactive) | > 100 µM (inactive) | > 100 µM (inactive) | > 100 µM (inactive) | > 100 µM (inactive) | > 100 µM (inactive) | > 100 µM (inactive) | 78.3 µM (inactive) | > 100 µM (inactive) | > 100 µM (inactive) | > 100 µM (inactive) | > 100 µM (inactive)
CC1=C2C(=O)C3[C@@H](CCC4=CC(=O)CC[C@@]43C)C2CC[C@]12O[C@@H]1C[C@H](C)CN[C@H]1[C@H]2C (stereo partly specified) | 28 µM (inactive) | 31.4 µM (inactive) | > 100 µM (inactive) | 49 µM (inactive) | 12.3 µM (inactive) | 16.9 µM (inactive) | 59 µM (inactive) | 70.5 µM (inactive) | 33.5 µM (inactive) | 38.5 µM (inactive) | 21.1 µM (inactive) | > 100 µM (inactive) | 17.1 µM (inactive) | 29.2 µM (inactive) | 23.4 µM (inactive) | 48.2 µM (inactive)
COC(=O)CCC1CCc2c(OC)ccc(O)c2C1=O (stereo unspecified) | > 100 µM (inactive) | > 100 µM (inactive) | – | > 100 µM (inactive) | > 100 µM (inactive) | > 100 µM (inactive) | > 100 µM (inactive) | 28.7 µM (inactive) | > 100 µM (inactive) | > 100 µM (inactive) | > 100 µM (inactive) | > 100 µM (inactive) | > 100 µM (inactive) | > 100 µM (inactive) | > 100 µM (inactive) | –
CS/C(c1ccccc1)=[N+](\[O-])Cc1ccccc1 | > 100 µM (inactive) | > 100 µM (inactive) | > 100 µM (inactive) | > 100 µM (inactive) | > 100 µM (inactive) | > 100 µM (inactive) | > 100 µM (inactive) | > 100 µM (inactive) | 33.6 µM (inactive) | > 100 µM (inactive) | > 100 µM (inactive) | > 100 µM (inactive) | 20 µM (inactive) | > 100 µM (inactive) | > 100 µM (inactive) | > 100 µM (inactive)
Cc1cccc(C2SCc3nc4ccccc4n32)c1 (stereo unspecified) | 37 µM (inactive) | 24.3 µM (inactive) | 31 µM (inactive) | 18.9 µM (inactive) | 6.78 µM (inactive) | 23.6 µM (inactive) | 26.7 µM (inactive) | 24.1 µM (inactive) | 27.7 µM (inactive) | 14.9 µM (inactive) | 18.5 µM (inactive) | 24.7 µM (inactive) | 17.1 µM (inactive) | 21.9 µM (inactive) | 27.8 µM (inactive) | 14.7 µM (inactive)
CC1=CC(=O)CCC2(C)C1CC[C@@H]2OC=O (stereo partly specified) | > 100 µM (inactive) | > 100 µM (inactive) | > 100 µM (inactive) | > 100 µM (inactive) | > 100 µM (inactive) | 53.6 µM (inactive) | > 100 µM (inactive) | > 100 µM (inactive) | > 100 µM (inactive) | > 100 µM (inactive) | > 100 µM (inactive) | > 100 µM (inactive) | > 100 µM (inactive) | > 100 µM (inactive) | > 100 µM (inactive) | > 100 µM (inactive)
O=NN(CCCl)C(=O)NCc1ccc[n+]([O-])c1 | 93.8 µM (inactive) | > 100 µM (inactive) | > 100 µM (inactive) | > 100 µM (inactive) | 76.4 µM (inactive) | 54 µM (inactive) | > 100 µM (inactive) | > 100 µM (inactive) | 45.7 µM (inactive) | > 100 µM (inactive) | > 100 µM (inactive) | > 100 µM (inactive) | 33 µM (inactive) | > 100 µM (inactive) | 11.7 µM (inactive) | 15.8 µM (inactive)
CN(C)C(=O)Nc1c([N+](=O)[O-])cc(C(F)(F)F)cc1[N+](=O)[O-] | 45 µM (inactive) | 83.4 µM (inactive) | > 100 µM (inactive) | > 100 µM (inactive) | 19.4 µM (inactive) | > 100 µM (inactive) | 44.6 µM (inactive) | > 100 µM (inactive) | 42.9 µM (inactive) | 8.45 µM (inactive) | 58.7 µM (inactive) | > 100 µM (inactive) | 58.7 µM (inactive) | > 100 µM (inactive) | 46.9 µM (inactive) | 53.5 µM (inactive)
CC1OC(OC2C(OC(=O)[C@]34CCC(C)(C)CC3C3=CCC5[C@@]6(C)C[C@H](O)[C@H](OC7OC(CO)C(O)C(O)C7N)[C@@](C)(C(=O)O)C6CC[C@@]5(C)C3(C)CC4)OCC(O)C2O)C(O)C(O)C1OC1OCC(O)C(O)C1O (stereo partly specified) | > 100 µM (inactive) | > 100 µM (inactive) | > 100 µM (inactive) | > 100 µM (inactive) | > 100 µM (inactive) | > 100 µM (inactive) | – | > 100 µM (inactive) | > 100 µM (inactive) | > 100 µM (inactive) | > 100 µM (inactive) | > 100 µM (inactive) | – | > 100 µM (inactive) | > 100 µM (inactive) | > 100 µM (inactive)
COc1ccc(-c2cc3ccccc3[nH]c2=O)cc1OC | > 100 µM (inactive) | > 100 µM (inactive) | > 100 µM (inactive) | > 100 µM (inactive) | > 100 µM (inactive) | > 100 µM (inactive) | > 100 µM (inactive) | > 100 µM (inactive) | > 100 µM (inactive) | 47.5 µM (inactive) | > 100 µM (inactive) | > 100 µM (inactive) | > 100 µM (inactive) | > 100 µM (inactive) | > 100 µM (inactive) | –
COc1ccc([C@H]2[C@@H]3CCc4ccccc4C3=NN2C(N)=S)cc1OC | 41.9 µM (inactive) | 32.7 µM (inactive) | – | 40.1 µM (inactive) | 22.9 µM (inactive) | 97.7 µM (inactive) | 67.1 µM (inactive) | 45.6 µM (inactive) | 44.1 µM (inactive) | 39.7 µM (inactive) | 50 µM (inactive) | > 100 µM (inactive) | 27 µM (inactive) | > 100 µM (inactive) | 34 µM (inactive) | 35.4 µM (inactive)
CCC1(Cl)C(=O)NC(=O)N(C2CC(O)C(CO)O2)C1N=[N+]=[N-] (stereo unspecified) | > 100 µM (inactive) | > 100 µM (inactive) | > 100 µM (inactive) | > 100 µM (inactive) | > 100 µM (inactive) | > 100 µM (inactive) | > 100 µM (inactive) | – | > 100 µM (inactive) | 41.2 µM (inactive) | > 100 µM (inactive) | > 100 µM (inactive) | – | > 100 µM (inactive) | > 100 µM (inactive) | > 100 µM (inactive)
CCOC(=O)CN(Cc1ccccc1)Cc1c(C(=O)c2ccccc2)c2ccccc2n1C(=O)c1ccccc1 | > 100 µM (inactive) | > 100 µM (inactive) | > 100 µM (inactive) | > 100 µM (inactive) | – | > 100 µM (inactive) | > 100 µM (inactive) | 60 µM (inactive) | > 100 µM (inactive) | > 10 µM (inactive) | > 100 µM (inactive) | > 100 µM (inactive) | 41 µM (inactive) | > 100 µM (inactive) | > 100 µM (inactive) | 10.4 µM (inactive)
CC(C)C(NCc1c2ccccc2[n+](C)c2ccccc12)C(=O)O (stereo unspecified) | 8.22 µM (inactive) | 3.53 µM (inactive) | 3.48 µM (inactive) | 10.6 µM (inactive) | 1.97 µM (inactive) | 13.8 µM (inactive) | 4.49 µM (inactive) | 14.7 µM (inactive) | 5.94 µM (inactive) | 3.48 µM (inactive) | 6.04 µM (inactive) | 15.5 µM (inactive) | 0.748 µM (active) | 7.91 µM (inactive) | 3.56 µM (inactive) | 3.57 µM (inactive)
Cc1cn(C2CC3C(COCN3O)O2)c(=O)[nH]c1=O (stereo unspecified) | > 100 µM (inactive) | > 100 µM (inactive) | – | > 100 µM (inactive) | > 100 µM (inactive) | > 100 µM (inactive) | > 100 µM (inactive) | > 100 µM (inactive) | > 100 µM (inactive) | > 100 µM (inactive) | – | > 100 µM (inactive) | > 100 µM (inactive) | > 100 µM (inactive) | > 100 µM (inactive) | –
COC(=O)c1cc2c3ccccc3n(C(C)=O)c2cn1 | > 100 µM (inactive) | 53.8 µM (inactive) | 23.2 µM (inactive) | 51.2 µM (inactive) | 35.7 µM (inactive) | 59.6 µM (inactive) | > 100 µM (inactive) | > 100 µM (inactive) | 35.6 µM (inactive) | 43.9 µM (inactive) | > 100 µM (inactive) | > 100 µM (inactive) | 45.6 µM (inactive) | 45.8 µM (inactive) | 76.9 µM (inactive) | 49 µM (inactive)
